Measured values from patent publication US10407388B2, “Thiourea derivatives as activators of RORα and pharmaceutical composition containing same” (SEOUL NATIONAL UNIVERSITY R & DB FOUNDATION, priority 2011, dated 2019).

target: T1, RORα (Homo sapiens, UniProt P35398); assay: Transcriptional activity of RORα, RORE-tk-Luc reporter in CV-1 cells (Experimental Example 1); format: cell-based; conditions: JC1 compounds 100 μM, 24 hours; luciferase activity standardized by β-gal; versus control treated only with solvent
T1 construct: expressed in transfected cells; host or cells: CV-1 cells (ATCC CCL-70)
T1 sequence (P35398 1-523): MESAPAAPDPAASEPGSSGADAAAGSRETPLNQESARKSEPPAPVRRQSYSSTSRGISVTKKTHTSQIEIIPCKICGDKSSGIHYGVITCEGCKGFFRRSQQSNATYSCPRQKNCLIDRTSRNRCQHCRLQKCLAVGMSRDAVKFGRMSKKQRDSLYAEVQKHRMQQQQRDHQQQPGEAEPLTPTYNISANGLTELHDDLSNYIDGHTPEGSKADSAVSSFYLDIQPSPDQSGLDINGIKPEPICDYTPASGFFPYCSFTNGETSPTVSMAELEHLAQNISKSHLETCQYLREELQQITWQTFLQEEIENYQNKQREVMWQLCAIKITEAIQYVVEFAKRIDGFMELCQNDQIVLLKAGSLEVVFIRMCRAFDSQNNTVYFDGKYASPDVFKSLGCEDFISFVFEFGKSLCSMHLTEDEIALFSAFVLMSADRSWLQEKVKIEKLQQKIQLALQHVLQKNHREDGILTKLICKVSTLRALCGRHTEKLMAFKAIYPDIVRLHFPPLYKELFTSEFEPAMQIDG
Experimental: CV-1 cells (CCL-70) were purchased from American Type Culture Collection (ATCC). The CV-1 cells (4×10^4 cells/well) were seeded on a 24-well culture plate and cultured overnight in a Dulbecco's Modified Eagle's Medium (DMEM) containing 10% fetal bovine serum (FBS). The CV-1 cells were maintained at 37° C. in a humidification thermostat containing 5% CO2 and 95% air. After culturing, the cells were transformed with RORE-tk-Luc reporter plasmid (100 ng) and ROR expression vector (5 ng) using calcium phosphate. […]

First: CNC(=S)NCc1ccccc1Br [Compound 1, 1-(2-bromo-benzyl)-3-methyl-thiourea]
Second: CNC(=S)NCc1ccccc1C [Compound 7, 1-(2-methyl-benzyl)-3-methyl-thiourea]
The “Fold Activation” value of the first is higher: 3.4 for the first, 0.7 for the second.

First: CNC(=S)NCc1ccc(Br)cc1 [Compound 2, 1-(4-bromo-benzyl)-3-methyl-thiourea]
Second: CNC(=S)NCc1ccc(Cl)cc1 [Compound 3, 1-(4-chloro-benzyl)-3-methyl-thiourea]
The “Fold Activation” value of the first is lower: 1.4 for the first, 2.6 for the second.

First: CNC(=S)NCc1ccc(OC)cc1 [Compound 4, 1-(4-methoxy-benzyl)-3-methyl-thiourea]
Second: CNC(=S)NCc1ccc(C)cc1 [Compound 14, 1-(4-methyl-benzyl)-3-methyl-thiourea]
The “Fold Activation” value of the first is lower: 3.4 for the first, 3.9 for the second.

First: CNC(=S)NCc1ccc(OC)cc1OC [Compound 5, 1-(2,4-dimethoxy-benzyl)-3-methyl-thiourea]
Second: CNC(=S)NCc1cccc(OC)c1OC [Compound 15, 1-(2,3-dimethoxy-benzyl)-3-methyl-thiourea]
The “Fold Activation” value of the first is lower: 1.1 for the first, 1.5 for the second.

Compared with `CNC(=S)NCc1cccc(C)c1` [Compound 6, 1-(3-methyl-benzyl)-3-methyl-thiourea], `CNC(=S)NCc1cccc(Cl)c1` [Compound 28, 1-(3-chloro-benzyl)-3-methyl-thiourea] is lower in “Fold Activation” value: 1.1 for the first, 0.7 for the second.

Going from `CNC(=S)NCc1ccc2c(c1)OCO2` [Compound 8, 1-(benzo[1,3]dioxyl-5-methyl)-3-methyl-thiourea] to `CNC(=S)NCc1ccc(O)c(O)c1` [Compound 22, 1-(3,4-dihydroxy-benzyl)-3-methyl-thiourea], the “Fold Activation” value falls from 1.7 to 0.6.

Compared with `CNC(=S)NCc1ccc(O)c(OC)c1` [Compound 9, 1-(4-hydroxy-3-methoxy-benzyl)-3-methyl-thiourea], `CNC(=S)NCc1ccc(OC)c(O)c1` [Compound 25, 1-(3-hydroxy-4-methoxy-benzyl)-3-methyl-thiourea] is higher in “Fold Activation” value: 1.4 for the first, 1.9 for the second.

Going from `CNC(=S)NCc1ccc(N(C)C)cc1` [Compound 10, 1-(4-dimethylamino-benzyl)-3-methyl-thiourea] to `CNC(=S)NCc1ccc(F)cc1` [Compound 30, 1-(4-fluoro-benzyl)-3-methyl-thiourea], the “Fold Activation” value rises from 1.3 to 2.5.

Going from `CNC(=S)NCc1ccc(C(F)(F)F)cc1` [Compound 11, 1-(4-trifluoromethyl-benzyl)-3-methyl-thiourea] to `CNC(=S)NCc1ccc(C(C)(C)C)cc1` [Compound 13, 1-(4-t-butyl-benzyl)-3-methyl-thiourea], the “Fold Activation” value falls from 2.3 to 0.9.

First: CNC(=S)NCc1ccc([N+](=O)[O-])cc1 [Compound 12, 1-(4-nitro-benzyl)-3-methyl-thiourea]
Second: CNC(=S)NCc1cccc([N+](=O)[O-])c1 [Compound 17, 1-(3-nitro-benzyl)-3-methyl-thiourea]
The “Fold Activation” value of the first is higher: 1.6 for the first, 0.9 for the second.

First: CCOc1ccccc1CNC(=S)NC [Compound 16, 1-(2-ethoxy-benzyl)-3-methyl-thiourea]
Second: C=CCOc1ccccc1CNC(=S)NC [Compound 39, 1-(2-allyloxy-benzyl)-3-methyl-thiourea]
The “Fold Activation” value of the first is lower: 1.4 for the first, 1.8 for the second.

Compared with `CNC(=S)NCc1ccccc1[N+](=O)[O-]` [Compound 18, 1-(2-nitro-benzyl)-3-methyl-thiourea], `CNC(=S)NCc1ccccc1Cl` [Compound 34, 1-(2-chloro-benzyl)-3-methyl-thiourea] is lower in “Fold Activation” value: 2.1 for the first, 0.8 for the second.

Compared with `CNC(=S)NCc1cc(OC)c(OC)c(OC)c1` [Compound 19, 1-(3,4,5-trimethoxy-benzyl)-3-methyl-thiourea], `CNC(=S)NCc1cc(OC)cc(OC)c1` [Compound 20, 1-(3,5-dimethoxy-benzyl)-3-methyl-thiourea] is lower in “Fold Activation” value: 2.2 for the first, 1.0 for the second.

First: CNC(=S)NCc1ccc(Cl)cc1Cl [Compound 21, 1-(2,4-dichloro-benzyl)-3-methyl-thiourea]
Second: CNC(=S)NCc1cccc(Cl)c1Cl [Compound 33, 1-(2,3-dichloro-benzyl)-3-methyl-thiourea]
The “Fold Activation” value of the first is lower: 0.6 for the first, 0.7 for the second.

First: CNC(=S)NCc1ccc(OC)cc1OC [Compound 23, 1-(2,4-dimethoxy-benzyl)-3-methyl-thiourea]
Second: CNC(=S)NCc1ccc(F)cc1F [Compound 32, 1-(2,4-difluoro-benzyl)-3-methyl-thiourea]
The “Fold Activation” value of the first is higher: 2.9 for the first, 0.9 for the second.

First: CNC(=S)NCc1ccc(-c2ccccc2)cc1 [Compound 24, 1-(4-phenyl-benzyl)-3-methyl-thiourea]
Second: CCOc1cc(-c2ccccc2)ccc1CNC(=S)NC [Compound 44, 1-(3-ethoxy-biphenyl-4-methyl)-3-methyl-thiourea]
The “Fold Activation” value of the first is lower: 0.2 for the first, 1.2 for the second.

First: CNC(=S)NCc1ccc(Cl)c(Cl)c1 [Compound 27, 1-(3,4-dichloro-benzyl)-3-methyl-thiourea]
Second: CNC(=S)NCc1ccc(F)c(F)c1 [Compound 31, 1-(3,4-difluoro-benzyl)-3-methyl-thiourea]
The “Fold Activation” value of the first is higher: 1.0 for the first, 0.8 for the second.

Compared with `CNC(=S)NCc1cccc(F)c1` [Compound 29, 1-(3-fluoro-benzyl)-3-methyl-thiourea], `CNC(=S)NCc1ccc2ccccc2c1` [Compound 43, 1-methyl-3-naphthalene-2-methyl-thiourea] is lower in “Fold Activation” value: 1.1 for the first, 0.7 for the second.

Compared with `CNC(=S)N[C@H](C)c1ccc(OC)cc1` [Compound 35, R-(+)-1-[1-(4-methoxy-phenyl)-ethyl]-3-methyl-thiourea], `CNC(=S)N[C@@H](C)c1ccc(OC)cc1` [Compound 36, S-(−)-1-[1-(4-methoxy-phenyl)-ethyl]-3-methyl-thiourea] is lower in “Fold Activation” value: 0.7 for the first, 0.6 for the second.

Going from `CNC(=S)NCc1ccc(OC)c(OCc2ccccc2)c1` [Compound 41, 1-(3-benzyloxy-4-methoxy-benzyl)-3-methyl-thiourea] to `CCOc1cc(C=Cc2ccccc2)ccc1CNC(=S)NC` [Compound 47, 1-(2-ethoxy-4-styryl-benzyl)-3-methyl-thiourea], the “Fold Activation” value falls from 2.5 to 1.2.

`CCOc1cc(-c2ccc(C(C)(C)C)cc2)ccc1CNC(N)=S` [Compound 45, (4′-tert-butyl-3-ethoxy-biphenyl-4-methyl)-thiourea] and `CCOc1cc(-c2ccc(C(F)(F)F)cc2)ccc1CNC(=S)NC` [Compound 48, 1-(3-ethoxy-4′-trifluoromethyl-biphenyl-4-methyl)-3-methyl-thiourea] are the same in “Fold Activation” value: 1.0 for the first, 1.0 for the second.

First: CNC(=S)NCc1ccccc1Oc1ccccc1 [Compound 51, 1-methyl-3-(2-phenoxy-benzyl)-thiourea]
Second: CNC(=S)NCc1ccc(Oc2ccc(F)cc2)cc1 [Compound 52, 1-[4-(4-fluoro-phenoxy)-benzyl]-3-methyl-thiourea]
The “Fold Activation” value of the first is lower: 1.3 for the first, 1.5 for the second.

In the case of `CNC(=S)NCc1ccc(Oc2ccc(OC)cc2)cc1` [Compound 53, 1-[4-(4-methoxy-phenoxy)-benzyl]-3-methyl-thiourea], the “Fold Activation” value was 2.1.
